Assay results: US20250197820A1, “NUCLEIC ACID POLYMERASE AND ITS USE IN PRODUCING NON-DNA NUCLEOTIDE POLYMERS” (UNITED KINGDOM RESEARCH AND INNOVATION, priority 2021, published 2025)

Tests used:
TGK = TGK (Thermococcus gorgonarius, UniProt P56689, A485L/D141A/E143A/E664K/V93Q/Y409G); details: ATP incorporation from an RNA primer; cited from earlier work
2M = molecular target: T1, 2M (Thermococcus gorgonarius, UniProt P56689, A485L/D141A/E143A/E664K/F545L/I521L/K592A/T541G/V93Q/Y409G); assay: Steady-state kinetics of single nucleotide incorporation by 2M; format: biochemical; details: single nucleotide incorporation from 2′OMe-RNA primer
T1 construct: made in house; host or cells: E. coli BL21 CodonPlus-RIL
Experimental: Steady-state kinetic parameters for NTP incorporation by 2M were determined by performing initial velocity measurements of single incorporations of either ATP, 2′OMe-ATP, or MOE-ATP. To generate the 2′OMe-RNA/DNA substrate, a 20-mer 2′OMe-RNA primer FD was 5′ 6-carboxyfluorescein end-labeled and annealed to the 52-mer DNA template BFL770 (Supplementary Table 1) at a 1:1.2 molar ratio. The reactions were performed at 50° C. in a mixture containing 1× Thermopol buffer, 6 mM Mg^2+, 100 nM 2′OMe-RNA/DNA substrate, and at NTP concentrations ranging from 0.5-250 μM. Enzyme concentrations and reaction times were selected to maintain initial velocity conditions. The 25 μL reactions were stopped by addition of a quenching solution containing 100 mM EDTA, 80% deionized formamide, 0.25 mg/ml bromophenol blue and 0.25 mg/ml xylene cyanol. Moreover, less than 20% of the primers were extended as required for steady-state conditions.
Product and substrate were separated on a 22% denaturing (8 M urea) polyacrylamide gel. The resulting bands were quantified using a Cytiva Typhoon RGB imager in fluorescence mode. Steady-state kinetic parameters (KM, kcat) were determined by fitting the data to the Michaelis-Menten equation. The data are the means and standard error from three independent experiments.

[1] = tested on: ‘wild type’ (wt) KRAS RNA; assay: 2′OMezyme RNA cleavage in trans, wild type KRAS substrate; format: biochemical, human; details: differs from G12D substrate by one nucleotide (G35)
Experimental: (§1) RNA cleavage assays were performed in trans using PAGE-purified 2′OMezymes and RNA substrates, annealed as described above and incubated at 37° C. in 2′OMezyme selection buffer (30 mM EPPS pH 7.4, 150 mM KCl, 1 mM MgCl2), or 30 mM EPP pH 8.5, 150 mM KCl, 25 mM MgCl2, supplemented with RNasin ribonuclease inhibitor (Promega, USA). In Mg^2+ titration experiments, 2′OMezyme selection buffer was supplemented with additional magnesium chloride (MgCl2); in pH titration experiments, 150 mM KCl, 1 mM MgCl2 plus 50 mM buffer as follows was used: […] (pH 5.0-6.0), EPPS (pH 6.5-8.75), CHES (pH 9.0-12.0). For magnesium free reactions, 30 mM EPPS pH 7.4, 150 mM KCl, 5 mM EDTA was used.

[2] = 2′OMezyme serum stability; format: in vitro ADME; details: 37° C., 120 h
Experimental: PAGE-purified 2′OMezyme “R15/5-K” and DNAzyme “1023_KRasC” were annealed in water as described above, then incubated (at 5 μM) at 37° C. in 95% human serum (MilliporeSigma, Germany). Full-length catalyst remaining was quantified on Urea-PAGE gels stained with SYBR Gold (ThermoFisher Scientific, USA).

Sub_KRas_12 [G12D] RNA = assay: 2′OMezyme RNA cleavage in trans, KRAS G12D substrate; format: biochemical, human
Experimental: as §1
Pseudo first-order reaction rates (kobs) under single-turnover pre-steady-state (Km/kcat) conditions were determined from three independent reactions with (separately annealed) catalyst at 5 μM and substrate at 1 μM, as described previously^8, fit using Prism 9 (GraphPad Software, USA). For multiple turnover reactions, 1 μM substrate was reacted with 10 nM 2′OMezyme at 37° C. in 2′OMezyme selection buffer.

[3] = tested on: 2.1 kb KRAS transcript (Sub_KRas_ORF); assay: 2′OMezyme cleavage of long KRAS transcripts; format: biochemical, human; details: 37° C., pH 7.4, 1 mM Mg^2+, 65 h
Experimental: Human cDNA clones for KRAS (transcript variant b, accession no. NM_004985) and CTNNB1 (transcript variant 1, accession no. NM_001904) in plasmids pCMV6-XL6 (SP6 promoter) (cat. no. SC109374) and pCMV6-XL5 (T7 promoter) (cat. no. SC107921), respectively, were obtained from OriGene, USA. Site-directed mutagenesis was performed using a QuikChange II kit (Agilent Technologies, USA), according to the manufacturer's protocol; KRAS mutations G12D (c.35G>A) and G13D ([…]), and CTNNB1 mutation S33Y (c.98C>A) were introduced using primer sets shown in Supplementary Table 2 (“Quik_KRAS_G12D_Fw/Rev”, “Quik_KRAS_G13D_Fw/Rev” or “Quik_CTNNB_G12D_Fw/Rev”) and resulting plasmids cloned and verified by Sanger sequencing (Source Biosciences, UK). Long RNA substrates equivalent to full KRAS and CTNNB1 mRNA transcripts bearing 5′ fluorescein (“Sub_KRas_ORF” and “Sub_CTNNB1_ORF”, respectively) were prepared using HiScribe T7 and SP6 RNA synthesis kits (NEB, USA), according to the manufacturer's protocol, with a 4:1 ratio of 5′-Fluorescein-ApG dinucleotide (IBA Life Sciences, Germany) to GTP, using template plasmids linearised using XmaI (NEB, USA). Reactions were subsequently treated with TURBO DNase (Invitrogen/Thermo Fisher Scientific, USA) and RNA transcripts purified using RNeasy mini kits (Qiagen, Germany). […]

[4] = tested on: 901 bp DNA template (sfGFP under T7 promoter); assay: 2′OMe-RNA transcription reactions with RGVG-M6; format: biochemical; details: compared to 2M; dependent on high concentrations of Mn2+
Experimental: DNA template for transcription reactions was created by PCR-amplifying a 901-bp region on a plasmid encoding sfGFP under a T7 promoter. The PCR used 0.5 μM forward primer “5T7.for” and 0.5 μM reverse primer “pCUN_Do.rev”; cycling conditions were 95° C. for 30 s, 30×[95° C. for 10 s, 69° C. for 30 s, 72° C. for 30 s], 72° C. for 2 min.
For very permissive conditions, reactions comprised 125 nM DNA template, 200 nM T7 RNAP WT or its variant RGVG-M613, 1.5 mM MnCl2, 7.5 mM each NTP or 1 mM each 2′OMe-NTP, 0.1 U yeast inorganic pyrophosphatase. In order to compare the yield of 2′OMe-RNA synthesis by 2M and RGVG-M6, reactions were run under equimolar nucleic acid input of 0.5 pmol primer (2M) and 0.5 pmol DNA template (50 nM, RGVG-M6), and 50 nM RGVG-M6 polymerase with a polymerase:template ratio of 1:1 as described in 13. Reactions were treated with Turbo DNase and Proteinase K followed by denaturing PAGE.

For Nc1ncnc2c1ncn2[C@@H]1O[C@H](COP(=O)(O)OP(=O)(O)OP(=O)(O)O)[C@@H](O)[C@H]1O [ATP], the Km (TGK) is given as 13.3 µM and the “Vmax/kcat values for incorporation” value (2M) is given as “essentially identical”.

For “R15/5-K: RNA endonuclease 2′OMezyme (all 2′OMe-RNA) specific for KRAS RNA c.26 - 44, G12D allele (CCUACGCACGUGACCCAUGACGGACAGAGAAGGCAUGACAGACUGCUCCAA; all 2'-O-methyl, backbone not given here)”, the “cleavage of wt KRAS RNA” value [1] was “essentially no cleavage”, the “degradation (or loss in activity) after incubation in human serum” value [2] was “no significant degradation” and the multiple-turnover catalysis (Sub_KRas_12 [G12D] RNA; 10 nM 2′OMezyme, 1 μM substrate) was “capable of multiple-turnover catalysis”. For the same molecule, the kcat (Sub_KRas_12 [G12D] RNA; 1 mM Mg^2+, pH 7.4, 37° C., single turnover) was 3.06e-05 s⁻¹, the “reduction of single-turnover rate compared with optimal conditions” value (Sub_KRas_12 [G12D] RNA; 1 mM Mg^2+, pH 7.4 vs 25 mM Mg^2+, pH 8.5) was “approximately 50%” and the kcat (Sub_KRas_12 [G12D] RNA; 5 mM EDTA, pH 7.4, 37° C. (absence of Mg^2+)) was 2.8e-07 s⁻¹. For the same molecule, the kcat (Sub_KRas_12 [G12D] RNA; 25 mM Mg^2+, pH 8.5, 37° C., single turnover, 5 μM 2′OMezyme, 1 μM substrate) was 6.67e-05 s⁻¹, the activity retained (Sub_KRas_12 [G12D] RNA; quasi-physiological low-Mg^2+ regime (0.5-1 mM Mg^2+)) was 70-80% and the “cleavage of wt KRAS transcript or G13D (c.38G>A) transcript” value [3] was “virtually no cleavage”. The “cleavage of long structured KRAS transcript bearing G12D” value ([3]; G12D (c.35G>A)) was “able to invade and cleave”.

B1: RGVG-M6: T7 RNA polymerase variant (P266L, S430P, N433T, E593G, S633P, Y639V, V685A, H784G, F849I, F880Y) (protein, UniProt P00573 1-883, looked up, variant P266L S430P N433T E593G S633P Y639V V685A H784G F849I F880Y)
T7 RNA polymerase: MNTINIAKNDFSDIELAAIPFNTLADHYGERLAREQLALEHESYEMGEARFRKMFERQLKAGEVADNAAAKPLITTLLPKMIARINDWFEEVKAKRGKRPTAFQFLQEIKPEAVAYITIKTTLACLTSADNTTVQAVASAIGRAIEDEARFGRIRDLEAKHFKKNVEEQLNKRVGHVYKKAFMQVVEADMLSKGLLGGEAWSSWHKEDSIHVGVRCIEMLIESTGMVSLHRQNAGVVGQDSETIELAPEYAEAIATRAGALAGISLMFQPCVVPPKPWTGITGGGYWANGRRPLALVRTHSKKALMRYEDVYMPEVYKAINIAQNTAWKINKKVLAVANVITKWKHCPVEDIPAIEREELPMKPEDIDMNPEALTAWKRAAAAVYRKDKARKSRRISLEFMLEQANKFANHKAIWFPYNMDWRGRVYAVPMFTPQGNDMTKGLLTLAKGKPIGKEGYYWLKIHGANCAGVDKVPFPERIKFIEENHENIMACAKSPLENTWWAEQDSPFCFLAFCFEYAGVQHHGLSYNCSLPLAFDGSCSGIQHFSAMLRDEVGGRAVNLLPSETVQDIYGIVAKKVNEILQADAINGTDNGVVTVTDENTGEISEKVKLGTKALAGQWLAYGVTRSVTKRPVMTLAVGSKEFGFRQQVLEDTIQPAIDSGKGLMFTQPNQAAGYMAKLIWESASVTVVAAVEAMNWLKSAAKLLAAEVKDKKTGEILRKRCAVHWVTPDGFPVWQEYKKPIQTRLNLMFLGQFRLQPTINTNKDSEIDAHKQESGIAPNFVGSQDGSHLRKTVVWAHEKYGIESFALIHDSFGTIPADAANLFKAVRETMVDTYESCDVLADFYDQIADQLHESQLDKMPALPAKGNLNLRDILESDYAFA
For B1, the “2′OMe-RNA synthesis activity (in words)” value [4] was “modest”.
